# Assay results as given in ChEMBL document CHEMBL3797052 (Eur J Med Chem, 2016).
# Experiments:
# Assay type in all cases: functional
# [1] = Cytotoxicity against human HCT116 cells assessed as growth inhibition at 100 uM after 2 days by MTT assay; conditions: HCT-116, 48 h, read-out: GI
# [2] = Cytotoxicity against human HCT116 cells assessed as growth inhibition at 10 uM after 2 days by MTT assay; conditions: HCT-116, 48 h, read-out: GI
# [3] = Cytotoxicity against human SKBR3 cells assessed as growth inhibition at 100 uM after 2 days by MTT assay; conditions: SK-BR-3, 48 h, read-out: GI
# [4] = Cytotoxicity against human SKBR3 cells assessed as growth inhibition at 10 uM after 2 days by MTT assay; conditions: SK-BR-3, 48 h, read-out: GI
# CCRF-CEM = assay: Antiproliferative activity against human CCRF-CEM cells assessed as cell growth at 10^-5 M after 48 hrs by sulforhodamine B assay; conditions: read-out: Activity
# [5] = Antiproliferative activity against human HL-60(TB) cells assessed as cell growth at 10^-5 M after 48 hrs by sulforhodamine B assay; conditions: HL-60, 48 h, read-out: Activity
# K562 = assay: Antiproliferative activity against human K562 cells assessed as cell growth at 10^-5 M after 48 hrs by sulforhodamine B assay; conditions: K562, 48 h, read-out: Activity
# [6] = Antiproliferative activity against human MOLT4 cells assessed as cell growth at 10^-5 M after 48 hrs by sulforhodamine B assay; conditions: MOLT-4, 48 h, read-out: Activity
# SR = assay: Antiproliferative activity against human SR cells assessed as cell growth at 10^-5 M after 48 hrs by sulforhodamine B assay; conditions: read-out: Activity
# A549 = assay: Antiproliferative activity against human A549/ATCC cells assessed as cell growth at 10^-5 M after 48 hrs by sulforhodamine B assay; conditions: A549, 48 h, read-out: Activity
# EKVX = assay: Antiproliferative activity against human EKVX cells assessed as cell growth at 10^-5 M after 48 hrs by sulforhodamine B assay; conditions: read-out: Activity
# NCI-H226 = assay: Antiproliferative activity against human NCI-H226 cells assessed as cell growth at 10^-5 M after 48 hrs by sulforhodamine B assay; conditions: NCI-H226, 48 h, read-out: Activity
# NCI-H23 = assay: Antiproliferative activity against human NCI-H23 cells assessed as cell growth at 10^-5 M after 48 hrs by sulforhodamine B assay; conditions: NCI-H23, 48 h, read-out: Activity
# NCI-H460 = assay: Antiproliferative activity against human NCI-H460 cells assessed as cell growth at 10^-5 M after 48 hrs by sulforhodamine B assay; conditions: NCI-H460, 48 h, read-out: Activity
# [7] = Antiproliferative activity against human COLO205 cells assessed as cell growth at 10^-5 M after 48 hrs by sulforhodamine B assay; conditions: COLO 205, 48 h, read-out: Activity
# [8] = Antiproliferative activity against human HCC2998 cells assessed as cell growth at 10^-5 M after 48 hrs by sulforhodamine B assay; conditions: HCC 2998, 48 h, read-out: Activity
# [9] = Antiproliferative activity against human HCT116 cells assessed as cell growth at 10^-5 M after 48 hrs by sulforhodamine B assay; conditions: HCT-116, 48 h, read-out: Activity
# HT-29 = assay: Antiproliferative activity against human HT-29 cells assessed as cell growth at 10^-5 M after 48 hrs by sulforhodamine B assay; conditions: HT-29, 48 h, read-out: Activity
# [10] = Antiproliferative activity against human SF295 cells assessed as cell growth at 10^-5 M after 48 hrs by sulforhodamine B assay; conditions: SF-295, 48 h, read-out: Activity
# [11] = Antiproliferative activity against human SNB19 cells assessed as cell growth at 10^-5 M after 48 hrs by sulforhodamine B assay; conditions: SNB-19, 48 h, read-out: Activity
# [12] = Antiproliferative activity against human SNB75 cells assessed as cell growth at 10^-5 M after 48 hrs by sulforhodamine B assay; conditions: SNB-75, 48 h, read-out: Activity
# Malme-3M = assay: Antiproliferative activity against human MALME-3M cells assessed as cell growth at 10^-5 M after 48 hrs by sulforhodamine B assay; conditions: read-out: Activity
# M14 = assay: Antiproliferative activity against human M14 cells assessed as cell growth at 10^-5 M after 48 hrs by sulforhodamine B assay; conditions: M14, 48 h, read-out: Activity
# SK-MEL-5 = assay: Antiproliferative activity against human SK-MEL-5 cells assessed as cell growth at 10^-5 M after 48 hrs by sulforhodamine B assay; conditions: SK-MEL-5, 48 h, read-out: Activity
# [13] = Antiproliferative activity against human UACC257 cells assessed as cell growth at 10^-5 M after 48 hrs by sulforhodamine B assay; conditions: UACC-257, 48 h, read-out: Activity
# [14] = Antiproliferative activity against human UACC62 cells assessed as cell growth at 10^-5 M after 48 hrs by sulforhodamine B assay; conditions: UACC-62, 48 h, read-out: Activity
# [15] = Antiproliferative activity against human IGROV1 cells assessed as cell growth at 10^-5 M after 48 hrs by sulforhodamine B assay; conditions: IGROV-1, 48 h, read-out: Activity
# [16] = Antiproliferative activity against human OVCAR5 cells assessed as cell growth at 10^-5 M after 48 hrs by sulforhodamine B assay; conditions: OVCAR-5, 48 h, read-out: Activity
# 786-0 = assay: Antiproliferative activity against human 786-0 cells assessed as cell growth at 10^-5 M after 48 hrs by sulforhodamine B assay; conditions: 786-0, 48 h, read-out: Activity
# A498 = assay: Antiproliferative activity against human A498 cells assessed as cell growth at 10^-5 M after 48 hrs by sulforhodamine B assay; conditions: A498, 48 h, read-out: Activity
# ACHN = assay: Antiproliferative activity against human ACHN cells assessed as cell growth at 10^-5 M after 48 hrs by sulforhodamine B assay; conditions: read-out: Activity
# SN12C = assay: Antiproliferative activity against human SN12C cells assessed as cell growth at 10^-5 M after 48 hrs by sulforhodamine B assay; conditions: read-out: Activity
# [17] = Antiproliferative activity against human UO31 cells assessed as cell growth at 10^-5 M after 48 hrs by sulforhodamine B assay; conditions: UO-31, 48 h, read-out: Activity
# [18] = Antiproliferative activity against human DU145 cells assessed as cell growth at 10^-5 M after 48 hrs by sulforhodamine B assay; conditions: DU-145, 48 h, read-out: Activity
# MDA-MB-231 = assay: Antiproliferative activity against human MDA-MB-231 cells assessed as cell growth at 10^-5 M after 48 hrs by sulforhodamine B assay; conditions: MDA-MB-231, 48 h, read-out: Activity
# [19] = Antiproliferative activity against human BT549 cells assessed as cell growth at 10^-5 M after 48 hrs by sulforhodamine B assay; conditions: BT-549, 48 h, read-out: Activity
# MDA-MB-468 = assay: Antiproliferative activity against human MDA-MB-468 cells assessed as cell growth at 10^-5 M after 48 hrs by sulforhodamine B assay; conditions: MDA-MB-468, 48 h, read-out: Activity
smiles,measurement,setting,value
CNC(=O)c1cc(Oc2ccc3nc(NC(=O)c4cc(C(F)(F)F)cc(C(F)(F)F)c4)sc3c2)ccn1,inhibition of growth at 100 µM,[1],76.9%
same,inhibition of growth at 10 µM,[2],16.8%
same,inhibition of growth at 100 µM,[3],80.4%
same,inhibition of growth at 10 µM,[4],8.56%
same,growth at 10 µM,CCRF-CEM,13%
same,growth at 10 µM,[5],-47%
same,growth at 10 µM,K562,7%
same,growth at 10 µM,[6],1%
same,growth at 10 µM,SR,5%
same,growth at 10 µM,A549,13%
same,growth at 10 µM,EKVX,15%
same,growth at 10 µM,NCI-H226,19%
same,growth at 10 µM,NCI-H23,15%
same,growth at 10 µM,NCI-H460,14%
same,growth at 10 µM,[7],-9%
same,growth at 10 µM,[8],39%
same,growth at 10 µM,[9],7%
same,growth at 10 µM,HT-29,15%
same,growth at 10 µM,[10],1%
same,growth at 10 µM,[11],16%
same,growth at 10 µM,[12],10%
same,growth at 10 µM,Malme-3M,-17%
same,growth at 10 µM,M14,15%
same,growth at 10 µM,SK-MEL-5,-66%
same,growth at 10 µM,[13],-10%
same,growth at 10 µM,[14],5%
same,growth at 10 µM,[15],27%
same,growth at 10 µM,[16],32%
same,growth at 10 µM,786-0,-9%
same,growth at 10 µM,A498,-35%
same,growth at 10 µM,ACHN,6%
same,growth at 10 µM,SN12C,6%
same,growth at 10 µM,[17],-4%
same,growth at 10 µM,[18],16%
same,growth at 10 µM,MDA-MB-231,-25%
same,growth at 10 µM,[19],5%
same,growth at 10 µM,MDA-MB-468,5%
